How the values were obtained:
[1] = cited from earlier work
[2] = system: hematopoietic stem cells (mononuclear cells co-cultured with mesenchymal cells); assay: Mesenchymal-MNC co-culture at 21 days +/- Nicotinamide 5 mM: cell counts and surface markers; type: cell-based, human
Source text: Isolation of mesenchymal cells: Mononuclear cells containing mesenchymal cells from bone marrow were obtained from a […] prepared by negative immuno-depletion of CD3, CD14, CD19, CD38, CD66b, and glycophorin-A positive cells using a commercially available kit (RosetteSep®, StemCell Technologies, Vancouver, BC, Canada), as per manufacturer's instructions. […] Blood 90 Suppl. 1 347b, 1997 (abst)]. The immuno-depleted cells were harvested, and then either further separated by layering on a Ficoll-Paque (Amersham-Pharmacia, Piscataway, N.J., USA) density gradient column (1.077 g/cm^3) and centrifuged at 400×g for 30 minutes, or cultured without further separation. The collected cells were plated in T75 non-coated tissue culture flasks (Nunc) at a concentration of 2×10^5 cells/ml, in expansion medium containing: low glucose DMEM and 20% Fetal Bovine Serum (FBS, Hyclone, Logan, Utah, USA) supplemented with or without 10 ng/ml bFGF (Pepro Tech Inc, Rocky Hill N.J.), 0.05 mg/ml gentamicin (Sigma Inc., St. Louis, Mo.) and 2 mM L-glutamine (Biological Industries, Israel). Selected cells were allowed to adhere for 3-4 days and non-adherent cells were washed out with medium changes. Some experiments were initiated as well with the entire MNC fraction.
Maintenance and expansion of mesenchymal cells: When adherent mesenchymal cells reached approximately 80-90% confluence, they were detached with 0.25% trypsin-EDTA (Sigma, Inc. St Louis, Mo.), washed twice in DMEM and 20% Fetal Bovine Serum, with centrifugation, 400 g, 5 min., and re-plated at a 1:2 to 1:1000 dilution under the same culture conditions.
(§1) Mesenchymal hematopoietic co-cultures: Mesenchymal cultures were established as described above. After reaching confluence, the mesenchymal medium was discarded and replaced with fresh, hematopoietic supportive medium containing early acting or early and late acting cytokines, and hematopoietic cells selected from; cord blood, bone marrow, placenta or peripheral blood mononuclear cells or purified progenitor cells (CD34+ or CD133+ cells), with or without a modulator of cell fate. Mononuclear or purified stem and/or progenitor cells were isolated and prepared for ex-vivo culture as previously described (see, above, or, for example, PCT IL05/000753). At different intervals the non-adherent cells were harvested, analyzed for hematopoietic potential by functional analysis (clonogenic assay, CFU, etc), and re-cultured in a stroma-free medium. The stromal layer was then re-supplemented with fresh hematopoietic supportive medium (medium including 10% FCS, SCF, TPO, FLT3, and IL6). This process was repeated several times during two to six weeks co-culture duration (as on day 10, day 14, etc).
Immunophenotyping: At different time points the cells were detached with 1 mM EDTA (15′, 37° C.). The detached cells were washed with a PBS solution containing 1% BSA, and stained (at 4° C. for 30 min) with either fluorescein isothiocyanate (FITC) or phycoerythrin (PE)-conjugated antibodies: mesenchymal markers 105 PE, 105 FITC (Serotec), 73 PE, and 49b PE, and other, non-mesenchymal markers such as 45 FITC, 14 FITC, HLA-DR FITC (BD Biosciences Pharmngen), 34 PE (Dako, Carpenteria, Calif., USA), HLA class1 PE, (BD Biosciences Pharmingen, San Diego Calif.). The cells were then washed in the above buffer and analyzed using a FACScalibur® flow cytometer (Becton Dickinson and Co, San Jose, Calif., USA). Cells were passed at a rate of about 1000 cells/second, using saline as the sheath fluid. A 488 nm argon laser beam served as the light source for excitation. Emission of ten thousand cells was measured using logarithmic amplification and calculated using the cellQuest software.

[3] = system: CD34+/CXCR4+ cells in hematopoietic stem cells co-cultured with mesenchymal cells; assay: CXCR4 in Mesenchymal-MNC co-culture at 21 days (CD34/CXCR4 double staining); type: cell-based, human; settings: for Number of CD34+CXCR4+ cells: 21 days, co-culture + cytokines + Nicotinamide 5 mM; for % Increase of CD34+CXCR4+ cells: vs co-culture + cytokines without nicotinamide
Source text: Induction of CXCR4 expression in hematopoietic stem cells results in increased sensitivity to lower levels of SDF-1, increased migration of the cells to SDF-1, improved proliferation and survival of the hematopoietic stem cells in-vitro and in-vivo, and improved engraftment potential of the induced cells. Similarly, it has been shown that blockage of CXCR4 with specific antibodies prevents engraftment of hematopoietic stem cells (Brenner, et al Stem Cells 2004; 22:1128-33; Kahn et al, Blood, 2004; 103:2942-49; Peled et al, Science 1999; 283:845-48). In order to investigate the effect of modulators of cell fate on CXCR4 expression in hematopoietic stem cells in co-culture with mesenchymal cells, the population of CD34+/CXCR4+ cell in co-cultured cells was detected and quantified by double staining with PE labeled CD34 and FITC labeled CXCR4. […] This enhanced CXCR4 expression contributes to the enhanced engraftment potential of the expanded, undifferentiated hematopoietic stem cells.

[4] = system: hematopoietic stem cells (from bone marrow) co-cultured with mesenchymal cells; assay: Long-term Mesenchymal-MNC co-culture (21 days +/- Nicotinamide, then 5 weeks cytokines only), assessed at 8 weeks; type: cell-based, human
Protocol: (§2) Assay for Colony Forming Units (CFU)—Cells were cloned in semi-solid, methylcellulose-containing medium supplemented with 2 IU/mL erythropoietin (Eprex, Cilag AG Int., Switzerland), stem cell factor and IL-3, both at 20 ng/mL, G-CSF and GM-CSF, both at 10 ng/mL (all from Pepro Tech, Rocky Hill, N.J.). Cultures were incubated for 14 days at 37° C. in humidified atmosphere of 5% CO2 in air.
In order to determine the long-term effects of modulators of cell fate on the long-term engraftment potential of hematopoietic stem cells, CFUc, CD34+ and CD34+/CD38− cells were assessed in co-cultured cells at 8 weeks (5 weeks after removal of nicotinamide from the medium).
The mononuclear cell fraction, prepared as described above, was expanded in co-culture with mesenchymal cells in medium supplemented with cytokines and 5 mM nicotinamide, as described hereinabove, for 21 days. After 21 days, the medium was replaced with medium supplemented with cytokines only, and expansion in co-cultures continued for another 5 weeks. At 8 weeks, the expanded cells were assessed for hematopoietic stem cell markers (CD34+ and CD34+/CD38−), and for engraftment potential (CFUc), as described hereinabove.

[5] = system: hematopoietic stem cells (mononuclear cells co-cultured with mesenchymal cells); assay: Assay for Colony Forming Units (CFU) on 21-day mesenchymal-MNC co-culture; type: cell-based, human; settings: Table 3 experiment; 21 days; Nicotinamide 5 mM
Source text: as §1
as §2, with “Cultures were incubated for 14 days at 37° C. in humidified atmosphere of 5% CO2 in air.” left out

[6] = Table 1 experiment, 21 days, Nicotinamide 5 mM
[7] = Table 2 experiment, 21 days, Nicotinamide 5 mM
[8] = Table 3 experiment, 21 days, Nicotinamide 5 mM
[9] = Table 4 experiment, 21 days, Nicotinamide 5 mM
[10] = 21 days Nicotinamide 5 mM then 5 weeks cytokines only

O=c1cc(N2CCOCC2)oc2c(-c3ccccc3)cccc12 [LY294002]
stability in tissue culture medium [1]: very stable

NC(=O)c1cccnc1 [Nicotinamide, nicotinamide]
CD34+CD38− (×10^4) [2, 6]: 304 ×10^4
CD34+Lin− (×10^4) [2, 6]: 25 ×10^4
TNC × 10^6 [2, 6]: 309 × 10^6
CD34+CD38− (×10^4) [2, 7]: 1238 ×10^4
CD34+Lin− (×10^4) [2, 7]: 689 ×10^4
TNC × 10^6 [2, 7]: 309 × 10^6
CD34+ (×10^4) [2, 8]: 1553 ×10^4
CD34+/TNC [2, 8]: 5.3%
CD34+CD38− (×10^4) [2, 8]: 82 ×10^4
TNC × 10^6 [2, 8]: 292 × 10^6
CD34+/TNC ([2]; Table 3 experiment, 21 days, Nicotinamide 5 mM, listed as nicotinamide): 5.3%
CD34+ (×10^4) [2, 9]: 216 ×10^4
CD34+/TNC [2, 9]: 1.5%
CD34+CD38− (×10^4) [2, 9]: 63 ×10^4
CD34+Lin− (×10^4) [2, 9]: 1.54 ×10^4
TNC × 10^6 [2, 9]: 144 × 10^6
CD34+/TNC ([2]; Table 4 experiment, 21 days, Nicotinamide 5 mM, listed as nicotinamide): 1.5%
greater expansion of stem cells (CD34+) relative to total nucleated cells, compared with cocultures without nicotinamide ([2]; Tables 3 and 4, 21 days, Nicotinamide 5 mM): ≤ 2.3 times
increase of the proportion of CD34+/38− cells and CD34+/Lin− cells in the cultures ([2]; with nicotinamide, in some cases, Tables 1-5): > 10 fold
Number of CD34+CXCR4+ cells ([3]; Exp 1): 65 × 10^4
% Increase of CD34+CXCR4+ cells ([3]; Exp 1): 80%
Number of CD34+CXCR4+ cells ([3]; Exp 2): 200 × 10^4
% Increase of CD34+CXCR4+ cells ([3]; Exp 2): 33%
CD34+ cells (cumulative) [4, 10]: 264 × 10^6
CD34+/CD38− (%) [4, 10]: 6.3%
CFUc (cumulative) [4, 10]: 28 × 10^6
Fold Increase (%) of CD34+ cells (cumulative) ([4]; vs co-culture + cytokines): 235%
Fold Increase (%) of CD34+/CD38− (%) ([4]; vs co-culture + cytokines): 1050%
Fold Increase (%) of CFUc (cumulative) ([4]; vs co-culture + cytokines): 215%
CFU (×10^3) [5]: 4331 ×10^3

Source: US8080417B2, “Methods of ex vivo hematopoietic stem cell expansion by co-culture with mesenchymal cells” (priority 2004, dated 2011)
